Test results from patent US20240051936A1, “ISOINDOLINONE COMPOUNDS” (Monte Rosa Therapeutics, Inc., priority 2021, published 2024).
Read-outs that look alike come from different tables or passages of the source.

How the values were obtained:
GSPT1 = GSPT1 (Homo sapiens (Human), UniProt P15170+Q96SW2); assay: Immunofluorescence assay for GSPT1 degradation in CAL-Si cells; format: cell-based
How it was run: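 CAL-Si cells on fibronectin were treated for 6 h with serial dilutions (30 μM to 0.1 nM). After fixation, GSPT1 was immunostained and imaged by high-content analysis, with DAPI/actin cell segmentation giving mean GSPT1 intensity per cell. DC50 came from nonlinear regression after normalization to controls.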

[1] = biological target: Full length wild-type cereblon CRBN (Homo sapiens (Human), UniProt Q96SW2); assay: Fluorescence polarization (FP) assay, cereblon binding
Sequence of Full length wild-type cereblon CRBN (Q96SW2 whole entry): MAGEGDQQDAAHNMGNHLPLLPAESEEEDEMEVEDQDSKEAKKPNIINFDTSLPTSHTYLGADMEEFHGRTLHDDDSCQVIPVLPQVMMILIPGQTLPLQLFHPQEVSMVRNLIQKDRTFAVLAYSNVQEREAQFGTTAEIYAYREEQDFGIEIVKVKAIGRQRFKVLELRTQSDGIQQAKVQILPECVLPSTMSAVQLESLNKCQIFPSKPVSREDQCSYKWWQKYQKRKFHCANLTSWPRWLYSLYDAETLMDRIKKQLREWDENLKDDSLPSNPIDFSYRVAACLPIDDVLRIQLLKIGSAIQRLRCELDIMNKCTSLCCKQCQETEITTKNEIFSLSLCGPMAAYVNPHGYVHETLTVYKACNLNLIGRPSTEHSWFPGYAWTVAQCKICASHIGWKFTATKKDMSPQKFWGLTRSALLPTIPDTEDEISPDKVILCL
How it was run: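 Full-length wild-type CRBN (80.0 nM) preincubated 30 min RT with compound (300–0.937 or 3000–9.3 nM, 12 points) in 20 mM HEPES pH 8.0, 150 NaCl, 0.5 mM TCEP, 0.05% Tween 20. Probe added at 5 nM final; FP read after 12 h (ex 590/em 675 nm), normalized to DMSO for IC50.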

CRBN = CRBN (Homo sapiens (Human), UniProt Q96SW2); assay: HTRF binding of compounds to CRBN; settings: read-out: HTRF Class (HTRF IC50, Cereblon binding)
Sequence of CRBN (Q96SW2 whole entry, species assumed): as the sequence (Q96SW2 whole entry) above

[2] = CAL-Si cells, treated 6 hours, read-out: Code, activity for GSPT1 degradation (DC50)
[3] = cereblon binding, bound, read-out: IC50 value
[4] = wild-type CRBN 80.0 nM, probe 5 nM, FP measured after 12 hours, read-out: rFP IC50
[5] = CAL-Si cells, compounds with code A, read-out: DC50 value code
[6] = Table 4, read-out: IF Class (ability for GSPT1 degradation)

Sequence of GSPT1 (P15170 whole entry): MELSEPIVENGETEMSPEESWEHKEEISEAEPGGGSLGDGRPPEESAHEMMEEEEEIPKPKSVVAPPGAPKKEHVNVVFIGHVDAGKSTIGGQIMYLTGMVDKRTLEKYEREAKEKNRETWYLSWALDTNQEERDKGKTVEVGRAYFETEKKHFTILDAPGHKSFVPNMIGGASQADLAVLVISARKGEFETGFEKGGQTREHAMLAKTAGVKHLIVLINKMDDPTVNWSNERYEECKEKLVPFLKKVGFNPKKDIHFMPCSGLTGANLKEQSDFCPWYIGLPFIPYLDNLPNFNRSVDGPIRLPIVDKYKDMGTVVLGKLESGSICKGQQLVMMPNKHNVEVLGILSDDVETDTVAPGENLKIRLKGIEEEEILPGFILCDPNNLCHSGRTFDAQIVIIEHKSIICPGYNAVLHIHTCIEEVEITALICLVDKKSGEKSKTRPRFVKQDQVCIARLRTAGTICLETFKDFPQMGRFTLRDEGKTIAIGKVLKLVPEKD
Sequence of GSPT1 (Q96SW2 whole entry): as the sequence (Q96SW2 whole entry) above
Sequence of GSPT1 (Q16531 whole entry partner): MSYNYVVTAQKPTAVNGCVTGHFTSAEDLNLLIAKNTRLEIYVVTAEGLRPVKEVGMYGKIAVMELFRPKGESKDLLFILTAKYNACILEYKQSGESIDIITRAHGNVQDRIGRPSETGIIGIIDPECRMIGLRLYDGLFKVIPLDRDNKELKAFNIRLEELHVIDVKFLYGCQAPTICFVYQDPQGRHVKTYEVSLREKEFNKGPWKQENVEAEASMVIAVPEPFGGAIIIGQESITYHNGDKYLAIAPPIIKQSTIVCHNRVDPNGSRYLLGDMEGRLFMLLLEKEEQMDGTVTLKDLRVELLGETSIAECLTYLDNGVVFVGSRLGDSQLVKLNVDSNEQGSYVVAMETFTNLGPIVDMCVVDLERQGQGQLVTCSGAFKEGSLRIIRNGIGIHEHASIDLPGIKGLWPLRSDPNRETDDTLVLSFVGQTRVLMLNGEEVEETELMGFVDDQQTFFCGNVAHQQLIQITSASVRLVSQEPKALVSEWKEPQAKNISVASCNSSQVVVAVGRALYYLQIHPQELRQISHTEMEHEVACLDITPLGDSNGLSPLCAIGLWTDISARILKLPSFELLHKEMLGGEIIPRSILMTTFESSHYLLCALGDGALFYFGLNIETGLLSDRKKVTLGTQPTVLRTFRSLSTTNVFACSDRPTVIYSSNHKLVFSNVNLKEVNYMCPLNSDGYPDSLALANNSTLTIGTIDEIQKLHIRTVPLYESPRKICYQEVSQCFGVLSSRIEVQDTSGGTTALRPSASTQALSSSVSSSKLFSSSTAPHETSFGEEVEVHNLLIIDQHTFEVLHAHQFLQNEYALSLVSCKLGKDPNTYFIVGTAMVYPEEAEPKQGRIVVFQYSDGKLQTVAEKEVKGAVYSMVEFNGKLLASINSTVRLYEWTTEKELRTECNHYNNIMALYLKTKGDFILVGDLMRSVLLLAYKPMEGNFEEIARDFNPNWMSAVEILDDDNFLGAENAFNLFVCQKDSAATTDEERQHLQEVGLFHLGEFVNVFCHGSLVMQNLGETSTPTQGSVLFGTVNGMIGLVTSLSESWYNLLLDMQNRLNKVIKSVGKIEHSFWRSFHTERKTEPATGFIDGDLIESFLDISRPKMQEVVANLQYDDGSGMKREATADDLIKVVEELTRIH

**Q.** Which DC50 (GSPT1; [2]) does the source give for `COc1cc(COC(=O)Nc2ccc(F)c(Cl)c2)cc2c1CN(C1CCC(=O)NC1=O)C2=O` (stereo not shown) [Compound 51, (2-(2,6-dioxopiperidin-3-yl)-7-methoxy-3-oxoisoindolin-5-yl)methyl(3-chloro-4-fluorophenyl)carbamate] here?
**A.** 0.03 to 0.3 µM

**Q.** What about the IC50 [1, 3] of the same compound?
**A.** < 0.6 µM

**Q.** What about the IC50 [1, 4] of the same compound?
**A.** 0.6 to 1.2 µM

**Q.** For `COc1cc(COC(=O)Nc2cc(C)cc(C)c2)cc2c1CN(C1CCC(=O)NC1=O)C2=O` (stereo not shown) [Compound 52, (2-(2,6-dioxopiperidin-3-yl)-7-methoxy-3-oxoisoindolin-5-yl)methyl (3,5-dimethylphenyl)carbamate], which DC50 (GSPT1; [2]) is on record?
**A.** 0.03 to 0.3 µM

**Q.** What about the IC50 [1, 3] of the same compound?
**A.** < 0.6 µM

**Q.** What about the IC50 [1, 4] of the same compound?
**A.** ≤ 0.6 µM

**Q.** `COc1cc(COC(=O)Nc2cccc(OC(F)F)c2)cc2c1CN(C1CCC(=O)NC1=O)C2=O` (stereo not shown) [Compound 53, (2-(2,6-dioxopiperidin-3-yl)-7-methoxy-3-oxoisoindolin-5-yl)methyl (3-(difluoromethoxy)phenyl)carbamate] was tested. Which DC50 (GSPT1; [5]) did it give?
**A.** < 0.03 µM

**Q.** What about the DC50 (GSPT1; [2]) of the same compound?
**A.** < 0.03 µM

**Q.** And the IC50 [1, 3]?
**A.** < 0.6 µM

**Q.** What about the IC50 [1, 4] of the same compound?
**A.** ≤ 0.6 µM

**Q.** For `COc1cc(COC(=O)Nc2cccc(C(C)(C)C)c2)cc2c1CN(C1CCC(=O)NC1=O)C2=O` (stereo not shown) [Compound 54, (2-(2,6-dioxopiperidin-3-yl)-7-methoxy-3-oxoisoindolin-5-yl)methyl (3-(tert-butyl)phenyl)carbamate], which DC50 (GSPT1; [5]) is on record?
**A.** < 0.03 µM

**Q.** And the DC50 (GSPT1; [2])?
**A.** < 0.03 µM

**Q.** What about the IC50 [1, 3] of the same compound?
**A.** < 0.6 µM

**Q.** What about the IC50 [1, 4] of the same compound?
**A.** ≤ 0.6 µM

**Q.** `COc1cc(COC(=O)Nc2cccc(OC(F)(F)F)c2)cc2c1CN(C1CCC(=O)NC1=O)C2=O` (stereo not shown) [Compound 55, (2-(2,6-dioxopiperidin-3-yl)-7-methoxy-3-oxoisoindolin-5-yl) methyl (3-(trifluoromethoxy)phenyl)carbamate] was tested. Which DC50 (GSPT1; [5]) did it give?
**A.** < 0.03 µM

**Q.** And the DC50 (GSPT1; [2])?
**A.** < 0.03 µM

**Q.** What about the IC50 [1, 4] of the same compound?
**A.** 0.6 to 1.2 µM

**Q.** For `COc1cc(COC(=O)Nc2cc(-c3ccccc3)ccn2)cc2c1CN(C1CCC(=O)NC1=O)C2=O` (stereo not shown) [Compound 56, (2-(2,6-dioxopiperidin-3-yl)-7-methoxy-3-oxoisoindolin-5-yl)methyl (4-phenylpyridin-2-yl)carbamate], which DC50 (GSPT1; [5]) is on record?
**A.** < 0.03 µM

**Q.** What about the DC50 (GSPT1; [2]) of the same compound?
**A.** < 0.03 µM

**Q.** And the IC50 [1, 3]?
**A.** < 0.6 µM

**Q.** And the IC50 [1, 4]?
**A.** ≤ 0.6 µM

**Q.** Which DC50 (GSPT1; [2]) does the source give for `COc1cc(COC(=O)Nc2cccc(OC3CC3)c2)cc2c1CN(C1CCC(=O)NC1=O)C2=O` (stereo not shown) [Compound 58, (2-(2,6-dioxopiperidin-3-yl)-7-methoxy-3-oxoisoindolin-5-yl)methyl (3-cyclopropoxyphenyl)carbamate] here?
**A.** > 0.3 µM

**Q.** And the IC50 [1, 3]?
**A.** < 0.6 µM

**Q.** And the IC50 [1, 4]?
**A.** ≤ 0.6 µM

**Q.** For `COc1cc(COC(=O)Nc2cnc(-c3ccccc3)c(C)c2)cc2c1CN(C1CCC(=O)NC1=O)C2=O` (stereo not shown) [Compound 59, (2-(2,6-dioxopiperidin-3-yl)-7-methoxy-3-oxoisoindolin-5-yl)methyl(5-methyl-6-phenylpyridin-3-yl)carbamate], which DC50 (GSPT1; [5]) is on record?
**A.** < 0.03 µM

**Q.** What about the DC50 (GSPT1; [2]) of the same compound?
**A.** < 0.03 µM

**Q.** And the IC50 [1, 3]?
**A.** < 0.6 µM

**Q.** And the IC50 [1, 4]?
**A.** ≤ 0.6 µM

**Q.** `COc1cc(COC(=O)Nc2ccc(-c3ccccc3C)nc2)cc2c1CN(C1CCC(=O)NC1=O)C2=O` (stereo not shown) [Compound 60, (2-(2,6-dioxopiperidin-3-yl)-7-methoxy-3-oxoisoindolin-5-yl)methyl (6-(o-tolyl)pyridin-3-yl)carbamate] was tested. Which DC50 (GSPT1; [5]) did it give?
**A.** < 0.03 µM

**Q.** What about the DC50 (GSPT1; [2]) of the same compound?
**A.** < 0.03 µM

**Q.** What about the IC50 [1, 3] of the same compound?
**A.** < 0.6 µM

**Q.** And the IC50 [1, 4]?
**A.** ≤ 0.6 µM

**Q.** How did the DC50 (GSPT1; [5]) turn out when `Cc1ccc(NC(=O)OCc2ccc3c(c2F)C(=O)N(C2CCC(=O)NC2=O)C3)cc1Cl` (stereo not shown) [Compound 71, (2-(2,6-dioxopiperidin-3-yl)-4-fluoro-3-oxoisoindolin-5-yl)methyl(3-chloro-4-methylphenyl)carbamate] was run?
**A.** < 0.03 µM

**Q.** What about the DC50 (GSPT1; [2]) of the same compound?
**A.** < 0.03 µM

**Q.** And the IC50 [1, 4]?
**A.** > 1.9 µM

**Q.** And the IC50 (CRBN)?
**A.** 0.1 to 1 µM

**Q.** `Cc1ccc(NC(=O)OCc2ccc3c(c2Cl)C(=O)N(C2CCC(=O)NC2=O)C3)cc1Cl` (stereo not shown) [Compound 72, (4-chloro-2-(2,6-dioxopiperidin-3-yl)-3-oxoisoindolin-5-yl)methyl(3-chloro-4-methylphenyl) carbamate] was tested. Which DC50 (GSPT1; [6]) did it give?
**A.** > 0.3 µM

**Q.** What about the IC50 (CRBN) of the same compound?
**A.** > 1 µM

**Q.** How did the DC50 (GSPT1; [6]) turn out when `CC1(c2ccc(NC(=O)OCc3cc(F)c4c(c3)C(=O)N(C3CCC(=O)NC3=O)C4)cn2)CC1` (stereo not shown) [Compound 75, (2-(2,6-dioxopiperidin-3-yl)-7-fluoro-3-oxoisoindolin-5-yl)methyl(6-(1-methylcyclopropyl)pyridin-3-yl)carbamate] was run?
**A.** < 0.03 µM

**Q.** And the IC50 (CRBN)?
**A.** 0.1 to 1 µM
